Results from US20160262394A1, “COMPOSITION COMPRISING AN ACTIVE AND A GRAFT COPOLYMER MADE OF N-VINYLLACTAM, VINYL ESTER, AND AN ALCOHOL ALKOXYLATE” (BASF SE, priority 2013, published 2016).
In brackets after ≈: the same amount, converted by molar mass.

Legend:
[1] = Solubilization of active in 3 wt % polymer solution (high-throughput robot, UV/VIS); assay type: physicochemical
Procedure: Solubilization measurements were carried out with a highthroughput screening robot. This setup dosed 10 mg solid active and […] of the respective 3 wt % liquid polymer solution (in Cl-PAC water D) into wells on a micro titer plate. After the addition of stirring bars and 24 hours incubation time the samples were filtrated via polypropylene filters in order to separate dissolved active and its solid formatted. The amount of solubilized active was determined via UV/VIS spectroscopy.

[2] = at 20° C.; cited from earlier work

Question: For `CC(O)(Cn1cncn1)c1ccc(Oc2ccc(Cl)cc2)cc1C(F)(F)F` (centres unmarked) [2-[4-(4-chlorophenoxy)-2-(trifluoromethyl)phenyl]-1-(1H-1,2,4-triazol-1-yl)propan-2-ol], which “Solubility of the triazole fungicide 2-[4-(4-chlorophenoxy)-2-(trifluoromethyl)phenyl]-1-(1H-1,2,4-triazol-1-yl)propan-2-ol” value ([1]; Active without polymer) is on record?
Answer: 15 ppm

Question: For `NC(=O)N1c2ccccc2C=Cc2ccccc21` [cabamazepine], which Solubility of cabamazepine ([1]; Active without polymer) is on record?
Answer: 181 ppm

Question: Which Solubility of fipronil [1] does the source give for `N#Cc1nn(-c2c(Cl)cc(C(F)(F)F)cc2Cl)c(N)c1[S+]([O-])C(F)(F)F` (centres unmarked) [fipronil] here?
Answer: 12 ppm

Question: For `Cn1cc(C(=O)Nc2ccccc2-c2cc(F)c(F)c(F)c2)c(C(F)F)n1` [fluxapyroxad], which water solubility [2] is on record?
Answer: 4 µg/mL (≈ 10.5 µM)

Question: What about the “Solubility of Xemium ® (fluxapyroxad)” value ([1]; Active without polymer) of the same molecule?
Answer: 10 ppm
